How the values were obtained:
[1] = target: T1, Xanthine oxidase (XO) (Bos taurus, UniProt P80457); assay: uric acid formation, absorbance […] nm; assay type: biochemical
[2] = target: T1, Xanthine oxidase (XO); assay: uric acid formation, Morrison fit; assay type: biochemical

T1 sequence (P80457 2-1332): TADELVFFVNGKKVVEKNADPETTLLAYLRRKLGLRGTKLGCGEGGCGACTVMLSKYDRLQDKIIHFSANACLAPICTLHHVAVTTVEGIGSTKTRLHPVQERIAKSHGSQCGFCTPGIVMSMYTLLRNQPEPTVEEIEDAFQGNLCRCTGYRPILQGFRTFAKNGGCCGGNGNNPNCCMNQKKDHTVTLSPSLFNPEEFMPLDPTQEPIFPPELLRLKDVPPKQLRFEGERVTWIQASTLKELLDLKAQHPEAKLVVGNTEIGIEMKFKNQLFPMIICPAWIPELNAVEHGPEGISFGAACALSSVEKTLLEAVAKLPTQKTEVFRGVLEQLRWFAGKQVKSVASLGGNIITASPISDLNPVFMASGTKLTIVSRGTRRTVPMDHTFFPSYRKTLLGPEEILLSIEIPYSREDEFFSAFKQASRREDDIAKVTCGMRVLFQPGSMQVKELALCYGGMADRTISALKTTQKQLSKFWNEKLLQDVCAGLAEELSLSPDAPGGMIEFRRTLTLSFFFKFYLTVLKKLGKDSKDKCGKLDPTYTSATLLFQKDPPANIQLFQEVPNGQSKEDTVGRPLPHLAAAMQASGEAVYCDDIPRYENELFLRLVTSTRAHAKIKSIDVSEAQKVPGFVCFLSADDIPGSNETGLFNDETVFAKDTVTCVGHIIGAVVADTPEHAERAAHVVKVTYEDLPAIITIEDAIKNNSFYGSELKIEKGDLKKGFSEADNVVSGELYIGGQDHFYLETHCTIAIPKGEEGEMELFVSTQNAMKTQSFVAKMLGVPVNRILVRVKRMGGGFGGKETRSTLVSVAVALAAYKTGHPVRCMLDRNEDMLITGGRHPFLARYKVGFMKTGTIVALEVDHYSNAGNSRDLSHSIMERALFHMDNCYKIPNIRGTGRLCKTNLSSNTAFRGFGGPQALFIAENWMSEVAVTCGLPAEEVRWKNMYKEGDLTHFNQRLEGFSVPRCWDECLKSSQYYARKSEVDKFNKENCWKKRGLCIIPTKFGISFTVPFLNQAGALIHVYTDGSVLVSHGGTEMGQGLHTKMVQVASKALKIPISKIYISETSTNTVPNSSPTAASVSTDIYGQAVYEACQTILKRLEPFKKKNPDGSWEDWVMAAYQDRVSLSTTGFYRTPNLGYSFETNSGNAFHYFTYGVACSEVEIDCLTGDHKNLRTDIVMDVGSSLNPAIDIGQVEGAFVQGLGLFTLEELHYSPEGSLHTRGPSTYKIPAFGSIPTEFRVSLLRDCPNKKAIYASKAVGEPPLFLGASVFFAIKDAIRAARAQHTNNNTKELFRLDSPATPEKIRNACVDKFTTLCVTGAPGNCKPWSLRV

IC50 [1] [µM] | Ki [2] [µM] | SMILES
24.8 ± 0.072 | 2.22 ± 0.307 | COc1cc(C)cc2c1C(=O)c1c(O)cccc1C2=O [1-O-methyl chrysophanol]
200.9 ± 0.04 | 38.7 ± 2.71 | Cc1cc(O)c2c(c1)C(=O)c1cccc(O)c1C2=O [Chrysophanol]

Source: publication doi:10.1101/2023.03.04.531071v1 (biorxiv, 2023)
